Test results taken from patent US20220409620A1, “REDUCING IMMUNOGENICITY TO PEGLOTICASE” (Horizon Pharma Rheumatology LLC, priority 2016, published 2022).

Tested on: adult patients with uncontrolled gout
Test: Serum uric acid (sUA) levels and sUA responder rate, open-label study of pegloticase with MTX (MIRROR OL)
Format: in vivo, human
Conditions: Month 6 sUA Responders
Method: The primary objective is to estimate the response rate during Month 6 (Weeks 20, 22, and 24), as measured by the sustained normalization of serum uric acid (SUA) to <6 mg/dL for at least 80% of the time during Month 6 in subjects receiving KXX with MTX.
The primary efficacy outcome endpoint is the sustained normalization of SUA to <6 mg/dL for at least 80% of the time during month 6 (weeks 20, 22, and 24) in subjects receiving KXX with MTX. […] Participants who achieve this endpoint were classified as “responders.” Serum uric acid (SUA) responders may also be defined as participants achieving and maintaining SUA <6 mg/dL for at least 80% of the time during Month 6 (Weeks 20, 22, and 24).
Blood samples may be collected prior to each pegloticase infusion for measurement of SUA levels using the Beckman Coulter AU System Uric Acid procedure. Participants were declared “non-responders” if there were SUA measures >6 mg/dL at 2 consecutive study visits beginning with the week 2 visit. […] This assumption and subsequent discontinuation of pegloticase was consistent with the protocol of large phase III randomized controlled trials and the product label. A formal stopping rule was 2 occasions of SUA levels of greater than 6 mg/dL.
Clinical Chemistry—Blood samples were collected prior to each pegloticase infusion for measurement of SUA levels (primary efficacy parameter) using the Beckman Coulter AU System Uric Acid procedure. In this procedure uric acid is converted to hydrogen peroxide. Hydrogen peroxide reacts with reagent to produce a chromophore which is read bichromatically at 660/800 nm. The amount of dye formed is proportional to the uric acid concentration in the sample.
Serum samples for measurement of SUA levels were collected at the Screening Visit, the Week −4 Visit (prior to the first dose of MTX), and the Week −2 Visit during the MTX Run-in Period; within 48 hours prior to each pegloticase infusion and after the end of each pegloticase infusion prior to discharge from the site during the Pegloticase+IMM Period; at the non-infusion Week 52/End of Study/Early Termination Visits and at the Post Treatment 3 and 6 Month Follow-up Visits. Additional serum samples for SUA levels were collected at optional non-infusion (Frequent Sampling) Visits at Weeks 1 and 7. […] Subjects with SUA level >6 mg/dL at 2 consecutive visits beginning at Week 2 visit discontinued treatment, completed the End of Pegloticase Infusion Visit procedures within 2 weeks and continued the subject visits according to the protocol (without treatment).
Efficacy analyses were performed using the modified intention-to-treat (mITT) population, defined as all enrolled subjects who received ≥1 dose of pegloticase. The proportion of Month 6 responders was summarized, along with a 95% confidence interval for the proportion. The proportion of Month 3 and overall (Months 3 and 6 combined) responders was analyzed similarly.
A subject was declared a non-responder if the subject had SUA level >6 mg/dL at 2 consecutive study visits beginning with the Week 2 Visit. In addition, a subject who withdraws from study treatment for any reason after the first dose of pegloticase in the KXX+MTX Period and prior to Month 6 (for the primary endpoint) or Month 3 (for the secondary endpoint) was considered a non-responder if SUA values were not collected at the planned time points.
Patients were administered oral MTX (15 mg/week) and folate (1 mg/day) 4 weeks prior to the first pegloticase infusion (Day 1) and throughout the pegloticase treatment period. Blood was drawn prior to each infusion to measure sUA level, monitor clinical parameters, and examine for ADA development. All patients followed typical IR prophylaxis protocols (fexofenadine one day before and the morning of each infusion and acetaminophen and IV corticosteroid the morning of each infusion).

[1] = End of Pegloticase Infusions Visit, n=2

## pegloticase
Day 1-Post-Infusion, n=8
  Serum Uric Acid, Observed, Median: 0.30 mg/dL
  sUA <6 mg/dL, n (%): 8 (100%)
[1]
  Serum Uric Acid, Change from Baseline, Mean (SD): −8.50 (1.556) mg/dL
  Serum Uric Acid, Change from Baseline, Median: -8.50 mg/dL
  Serum Uric Acid, Observed, Mean (SD): 0.30 (0.000) mg/dL
  Serum Uric Acid, Observed, Median: 0.30 mg/dL
  sUA <6 mg/dL, n (%): 2 (100%)
Week 1, n=4
  Serum Uric Acid, Change from Baseline, Mean (SD): −6.88 (1.836) mg/dL
  Serum Uric Acid, Change from Baseline, Median: -7.15 mg/dL
  Serum Uric Acid, Observed, Mean (SD): 0.30 (0.000) mg/dL
  Serum Uric Acid, Observed, Median: 0.30 mg/dL
  sUA <6 mg/dL, n (%): 4 (100%)
Week 2-Post-Infusion, n=11
  Serum Uric Acid, Change from Baseline, Mean (SD): −8.97 (2.810) mg/dL
  Serum Uric Acid, Change from Baseline, Median: -8.80 mg/dL
  Serum Uric Acid, Observed, Mean (SD): 0.30 (0.000) mg/dL
  Serum Uric Acid, Observed, Median: 0.30 mg/dL
  sUA <6 mg/dL, n (%): 11 (100%)
Week 2-Pre-Infusion, n=11
  Serum Uric Acid, Change from Baseline, Mean (SD): −8.64 (2.086) mg/dL
  Serum Uric Acid, Change from Baseline, Median: -8.80 mg/dL
  Serum Uric Acid, Observed, Mean (SD): 0.63 (1.096) mg/dL
  Serum Uric Acid, Observed, Median: 0.30 mg/dL
  sUA <6 mg/dL, n (%): 11 (100%)
Week 4-Post-Infusion, n=11
  Serum Uric Acid, Change from Baseline, Mean (SD): −8.97 (2.810) mg/dL
  Serum Uric Acid, Observed, Mean (SD): 0.30 (0.000) mg/dL
Week 4-Pre-Infusion, n=11
  Serum Uric Acid, Change from Baseline, Mean (SD): −8.59 (2.884) mg/dL
  Serum Uric Acid, Change from Baseline, Median: -8.60 mg/dL
  Serum Uric Acid, Observed, Mean (SD): 0.68 (1.043) mg/dL
  Serum Uric Acid, Observed, Median: 0.30 mg/dL
  sUA <6 mg/dL, n (%): 11 (100%)
Week 7, n=4
  sUA <6 mg/dL, n (%): 4 (100%)
Week 8-Post-Infusion, n=11
  Serum Uric Acid, Change from Baseline, Mean (SD): −8.97 (2.810) mg/dL
  Serum Uric Acid, Change from Baseline, Median: -8.80 mg/dL
  Serum Uric Acid, Observed, Mean (SD): 0.30 (0.000) mg/dL
  Serum Uric Acid, Observed, Median: 0.30 mg/dL
  sUA <6 mg/dL, n (%): 11 (100%)
Week 8-Pre-Infusion, n=11
  Serum Uric Acid, Change from Baseline, Mean (SD): −8.91 (2.824) mg/dL
  Serum Uric Acid, Change from Baseline, Median: -8.60 mg/dL
  Serum Uric Acid, Observed, Mean (SD): 0.37 (0.224) mg/dL
  Serum Uric Acid, Observed, Median: 0.30 mg/dL
  sUA <6 mg/dL, n (%): 11 (100%)
Week 10-Post-Infusion, n=11
  Serum Uric Acid, Change from Baseline, Mean (SD): −8.97 (2.810) mg/dL
  Serum Uric Acid, Change from Baseline, Median: -8.80 mg/dL
  Serum Uric Acid, Observed, Mean (SD): 0.30 (0.000) mg/dL
  Serum Uric Acid, Observed, Median: 0.30 mg/dL
  sUA <6 mg/dL, n (%): 11 (100%)
Week 10-Pre-Infusion, n=11
  Serum Uric Acid, Change from Baseline, Mean (SD): −8.97 (2.810) mg/dL
  Serum Uric Acid, Change from Baseline, Median: -8.80 mg/dL
  Serum Uric Acid, Observed, Mean (SD): 0.30 (0.000) mg/dL
  Serum Uric Acid, Observed, Median: 0.30 mg/dL
  sUA <6 mg/dL, n (%): 11 (100%)
Week 12-Post-Infusion, n=10
  Serum Uric Acid, Change from Baseline, Mean (SD): −9.13 (2.911) mg/dL
  Serum Uric Acid, Change from Baseline, Median: -9.05 mg/dL
  Serum Uric Acid, Observed, Mean (SD): 0.30 (0.000) mg/dL
  Serum Uric Acid, Observed, Median: 0.30 mg/dL
  sUA <6 mg/dL, n (%): 10 (100%)
Week 12-Pre-Infusion, n=11
  Serum Uric Acid, Change from Baseline, Mean (SD): −8.98 (2.806) mg/dL
  Serum Uric Acid, Change from Baseline, Median: -8.80 mg/dL
  Serum Uric Acid, Observed, Mean (SD): 0.30 (0.015) mg/dL
  Serum Uric Acid, Observed, Median: 0.30 mg/dL
  sUA <6 mg/dL, n (%): 11 (100%)
Week 14-Post-Infusion, n=10
  Serum Uric Acid, Change from Baseline, Mean (SD): −9.01 (2.959) mg/dL
  Serum Uric Acid, Change from Baseline, Median: -9.05 mg/dL
  Serum Uric Acid, Observed, Mean (SD): 0.30 (0.000) mg/dL
